The values that follow come from paper doi:10.1101/2020.07.22.215434v1 (biorxiv, 2020).

Common to all, as to assay: whole-cell patch clamp
Common to all, as to type: cell-based
(Patch clamp records ionic current or voltage across a cell membrane.)

One assay addresses hCav 3.1 (Homo sapiens, UniProt O43497). The conditions noted are these: tonic block, step -100 to -30 mV, 5 mM Ba2+, pH 7.4, room temperature.
In assay [1] the target is T1, hCav 3.2 (Homo sapiens, UniProt O95180). Particulars: read-out: % inhibition at 10 μM.
T1 sequence (O95180 whole entry): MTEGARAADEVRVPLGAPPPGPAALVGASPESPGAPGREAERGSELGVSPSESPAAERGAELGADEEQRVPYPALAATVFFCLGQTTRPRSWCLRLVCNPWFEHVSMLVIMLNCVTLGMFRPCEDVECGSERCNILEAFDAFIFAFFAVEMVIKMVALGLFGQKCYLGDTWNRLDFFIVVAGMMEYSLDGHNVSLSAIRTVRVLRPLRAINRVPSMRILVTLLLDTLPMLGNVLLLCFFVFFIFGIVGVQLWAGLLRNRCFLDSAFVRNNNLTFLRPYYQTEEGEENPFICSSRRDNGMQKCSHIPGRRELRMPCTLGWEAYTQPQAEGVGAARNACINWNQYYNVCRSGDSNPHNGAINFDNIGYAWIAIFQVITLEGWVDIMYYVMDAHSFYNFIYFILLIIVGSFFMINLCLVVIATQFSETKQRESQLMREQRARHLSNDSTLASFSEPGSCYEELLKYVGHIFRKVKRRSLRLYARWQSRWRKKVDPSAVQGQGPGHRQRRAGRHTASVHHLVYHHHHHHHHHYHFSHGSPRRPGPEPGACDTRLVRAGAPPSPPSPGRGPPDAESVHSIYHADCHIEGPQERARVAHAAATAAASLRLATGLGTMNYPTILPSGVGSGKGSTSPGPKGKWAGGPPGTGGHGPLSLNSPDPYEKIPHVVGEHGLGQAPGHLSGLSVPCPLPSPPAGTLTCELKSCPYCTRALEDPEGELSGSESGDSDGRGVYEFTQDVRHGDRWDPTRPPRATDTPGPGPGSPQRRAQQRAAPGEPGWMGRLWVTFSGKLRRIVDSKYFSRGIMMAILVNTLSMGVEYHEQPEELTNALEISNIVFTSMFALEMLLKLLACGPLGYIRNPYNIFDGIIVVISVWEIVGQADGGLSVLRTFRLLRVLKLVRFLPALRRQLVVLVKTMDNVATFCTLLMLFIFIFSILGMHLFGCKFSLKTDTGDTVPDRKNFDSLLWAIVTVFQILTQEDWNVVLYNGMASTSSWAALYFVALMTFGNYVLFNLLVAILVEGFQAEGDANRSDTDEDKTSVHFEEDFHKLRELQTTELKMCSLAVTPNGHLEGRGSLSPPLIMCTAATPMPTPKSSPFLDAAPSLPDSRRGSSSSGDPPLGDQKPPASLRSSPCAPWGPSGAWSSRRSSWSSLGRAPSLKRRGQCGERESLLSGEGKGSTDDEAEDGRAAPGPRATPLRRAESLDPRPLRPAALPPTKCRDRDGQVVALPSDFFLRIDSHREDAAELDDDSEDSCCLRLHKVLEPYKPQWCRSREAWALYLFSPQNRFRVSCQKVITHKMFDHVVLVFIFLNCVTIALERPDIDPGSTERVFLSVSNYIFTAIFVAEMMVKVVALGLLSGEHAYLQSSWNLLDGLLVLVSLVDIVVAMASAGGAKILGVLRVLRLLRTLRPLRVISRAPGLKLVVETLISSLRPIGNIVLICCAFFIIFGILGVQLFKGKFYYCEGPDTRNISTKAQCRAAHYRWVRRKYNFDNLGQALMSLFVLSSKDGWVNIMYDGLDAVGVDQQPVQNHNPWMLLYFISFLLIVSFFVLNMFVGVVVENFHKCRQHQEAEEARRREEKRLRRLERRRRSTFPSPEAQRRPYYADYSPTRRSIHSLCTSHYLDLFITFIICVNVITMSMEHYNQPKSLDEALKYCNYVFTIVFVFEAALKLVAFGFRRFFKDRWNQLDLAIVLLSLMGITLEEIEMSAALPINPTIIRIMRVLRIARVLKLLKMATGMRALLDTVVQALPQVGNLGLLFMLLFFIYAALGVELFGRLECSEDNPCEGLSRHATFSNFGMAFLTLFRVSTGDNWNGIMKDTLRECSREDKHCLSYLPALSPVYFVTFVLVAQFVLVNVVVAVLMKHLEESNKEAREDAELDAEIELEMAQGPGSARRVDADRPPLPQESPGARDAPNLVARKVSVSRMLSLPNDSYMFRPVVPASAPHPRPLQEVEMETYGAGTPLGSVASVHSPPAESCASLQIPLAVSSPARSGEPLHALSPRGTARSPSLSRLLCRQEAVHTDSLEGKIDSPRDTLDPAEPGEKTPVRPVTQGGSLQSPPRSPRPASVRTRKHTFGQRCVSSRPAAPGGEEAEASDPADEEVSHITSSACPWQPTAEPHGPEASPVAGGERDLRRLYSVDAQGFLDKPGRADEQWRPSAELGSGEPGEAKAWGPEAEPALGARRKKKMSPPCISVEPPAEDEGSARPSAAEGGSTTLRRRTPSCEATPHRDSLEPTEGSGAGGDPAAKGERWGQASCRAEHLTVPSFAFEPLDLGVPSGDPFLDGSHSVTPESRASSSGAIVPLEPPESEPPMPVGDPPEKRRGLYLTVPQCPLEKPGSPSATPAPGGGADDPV
For assay [2], the target named is T1, hCav 3.2. Particulars: tonic block, step -100 to -30 mV, 5 mM Ba2+, pH 7.4, room temperature.

Sequence of hCav 3.1 (O43497 whole entry): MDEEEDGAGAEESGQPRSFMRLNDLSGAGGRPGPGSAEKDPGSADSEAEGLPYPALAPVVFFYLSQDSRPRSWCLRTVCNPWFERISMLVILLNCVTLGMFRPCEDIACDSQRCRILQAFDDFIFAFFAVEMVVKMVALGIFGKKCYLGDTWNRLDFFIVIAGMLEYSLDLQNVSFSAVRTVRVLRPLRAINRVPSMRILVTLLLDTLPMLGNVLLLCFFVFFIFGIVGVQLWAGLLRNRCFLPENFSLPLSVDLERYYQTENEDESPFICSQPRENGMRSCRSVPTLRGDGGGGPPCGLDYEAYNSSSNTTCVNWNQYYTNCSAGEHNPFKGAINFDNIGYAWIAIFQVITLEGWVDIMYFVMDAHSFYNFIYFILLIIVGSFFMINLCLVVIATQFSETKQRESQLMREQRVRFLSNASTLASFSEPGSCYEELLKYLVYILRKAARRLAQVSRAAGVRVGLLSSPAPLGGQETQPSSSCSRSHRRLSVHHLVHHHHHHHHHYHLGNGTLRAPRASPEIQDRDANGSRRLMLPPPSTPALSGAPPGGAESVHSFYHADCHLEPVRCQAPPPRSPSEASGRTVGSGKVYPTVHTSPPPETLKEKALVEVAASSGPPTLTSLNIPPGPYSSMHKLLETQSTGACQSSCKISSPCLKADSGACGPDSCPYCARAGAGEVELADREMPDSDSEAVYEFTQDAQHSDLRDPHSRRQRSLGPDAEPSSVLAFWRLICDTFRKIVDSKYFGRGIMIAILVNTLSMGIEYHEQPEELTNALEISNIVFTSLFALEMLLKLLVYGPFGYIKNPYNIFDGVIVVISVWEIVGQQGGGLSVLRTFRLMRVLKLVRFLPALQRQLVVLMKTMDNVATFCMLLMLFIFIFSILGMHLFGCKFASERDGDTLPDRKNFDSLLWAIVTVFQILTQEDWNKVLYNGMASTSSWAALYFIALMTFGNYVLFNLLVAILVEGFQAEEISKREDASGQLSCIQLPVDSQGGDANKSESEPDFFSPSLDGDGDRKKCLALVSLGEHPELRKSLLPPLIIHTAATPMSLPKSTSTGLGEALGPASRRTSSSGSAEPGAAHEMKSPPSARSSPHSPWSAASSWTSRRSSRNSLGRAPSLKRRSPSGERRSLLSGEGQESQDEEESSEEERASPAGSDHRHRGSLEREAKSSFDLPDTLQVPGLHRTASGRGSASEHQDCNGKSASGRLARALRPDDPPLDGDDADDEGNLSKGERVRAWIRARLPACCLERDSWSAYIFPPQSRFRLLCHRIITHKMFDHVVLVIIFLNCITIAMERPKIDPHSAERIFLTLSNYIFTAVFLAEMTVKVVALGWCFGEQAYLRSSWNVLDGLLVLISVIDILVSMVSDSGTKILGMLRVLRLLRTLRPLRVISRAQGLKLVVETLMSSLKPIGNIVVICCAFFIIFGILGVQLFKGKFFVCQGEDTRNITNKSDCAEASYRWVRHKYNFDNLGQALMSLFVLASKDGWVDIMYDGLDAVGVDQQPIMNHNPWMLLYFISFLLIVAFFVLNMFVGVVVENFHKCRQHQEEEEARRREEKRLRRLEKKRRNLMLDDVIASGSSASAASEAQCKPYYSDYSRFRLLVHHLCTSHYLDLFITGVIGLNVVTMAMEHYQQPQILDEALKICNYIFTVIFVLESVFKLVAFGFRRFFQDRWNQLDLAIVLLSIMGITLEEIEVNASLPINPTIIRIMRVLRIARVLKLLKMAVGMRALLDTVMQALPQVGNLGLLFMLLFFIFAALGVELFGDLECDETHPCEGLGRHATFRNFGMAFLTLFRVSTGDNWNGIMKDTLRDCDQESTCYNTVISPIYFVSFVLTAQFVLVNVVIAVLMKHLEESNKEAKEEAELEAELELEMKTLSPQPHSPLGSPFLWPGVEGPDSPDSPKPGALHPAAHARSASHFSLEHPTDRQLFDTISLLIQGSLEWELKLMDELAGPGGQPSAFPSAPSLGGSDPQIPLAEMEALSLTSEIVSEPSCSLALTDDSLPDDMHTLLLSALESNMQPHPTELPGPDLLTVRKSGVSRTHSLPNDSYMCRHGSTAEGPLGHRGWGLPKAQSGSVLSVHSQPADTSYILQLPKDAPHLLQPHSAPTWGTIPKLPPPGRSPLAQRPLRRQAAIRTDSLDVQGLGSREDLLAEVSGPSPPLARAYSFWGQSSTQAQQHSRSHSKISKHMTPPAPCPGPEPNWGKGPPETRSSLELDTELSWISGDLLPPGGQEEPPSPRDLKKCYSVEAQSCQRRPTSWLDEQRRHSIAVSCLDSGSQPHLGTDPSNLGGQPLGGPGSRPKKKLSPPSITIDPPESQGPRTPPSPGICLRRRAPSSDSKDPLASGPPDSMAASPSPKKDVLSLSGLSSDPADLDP

As usually defined, the % inhibition is the share of the control response that was lost under treatment. A low value points to a response near the control. In the case of `COC(=O)[C@@H](NC(=O)c1nn(CC2CCCCC2)c2ccccc12)C(C)(C)C` [MDMB-CHMINACA], the “% inhibition at 10 μM” value on hCav 3.1 is more than 80%.

What is called inhibition is how much of the control response was suppressed. `C=C(C)[C@@H]1CCC(C)=C[C@H]1c1c(O)cc(CCCCC)cc1O` [CBD]: the inhibition at 10 µM on hCav 3.2 [1] is 57 ± 5%.

Consider `CCCCCc1cc(O)c2c(c1)OC(C)(C)[C@@H]1CCC(C)=C[C@@H]21` [Δ9-THC], for which the inhibition at 10 µM at hCav 3.2 [1] was determined as 43 ± 2.4%.

As usually defined, the IC50 is the concentration at which inhibition is half-maximal. Low readings indicate greater potency in that assay, high ones weaker potency in that assay. Turning to `COC(=O)C(NC(=O)c1cn(CC2CCCCC2)c2ccccc12)C(C)(C)C` (centres unmarked) [MDMB-CHMICA, methyl-2-[[1-(cyclohexylmethyl)indole-3-carbonyl]amino]-3,3-dimethylbutanoate], the IC50 against hCav 3.2 [2] amounted to 1500 ± 200 nM.

In the case of `COC(=O)C(NC(=O)c1nn(CC2CCCCC2)c2ccccc12)C(C)C` (centres unmarked) [AMB-CHMINACA, methyl 2-((1-(cyclohexylmethyl)-1H-indazole-3-carbonyl)amino)-3-methylbutanoate], at hCav 3.2 [2], half-maximal inhibition (IC50) required 740 ± 300 nM.
